“Also recorded” adds a separate entry of the source. Non-standard residues stand in square brackets, D forms with d. Residues, ends and D or L forms follow the SMILES beside them. *: point of attachment. Phe(F5) = N[C@@H](Cc1c(F)c(F)c(F)c(F)c1F)C(=O)O; hArg = N=C(N)NCCCC[C@H](N)C(=O)O; 12Ado = NCCCCCCCCCCCC(=O)O; Nle = CCCC[C@H](N)C(=O)O; Orn = NCCC[C@H](N)C(=O)O; Abu = CC[C@H](N)C(=O)O; PhAc = O=C(Cc1ccccc1)*
Assays:
[1] = test system: PC3 prostatic cancer cells; test: In vitro cell viability, PC3; assay type: cell-based, human; details: antagonist 5 μM for 72 h, cell proliferation assay; MIA602 = 1
Description: The inhibitory effects of the various synthesized GHRH antagonists were tested in cell proliferation assays in various human cancer cell lines including stomach cancer (KATOIII, N87), colon cancer (HT-29), urothelial cancer (J82, RT4), pancreatic cancer (PANC-1, CFPAC-1), prostatic cancer (PC3), breast cancer (MX-1, HCC1806), ovarian cancer (SK-OV-3, OVCAR-3) and lung cancer (HCC827, H460).
Cell culture. Human cancer cell lines including pancreatic (PANC-1 and CFPAC-1), lung (HCC827 and H460), stomach (NCI-N87 and KATOIII), urothelial (J82, RT4), prostatic (PC3), breast (MX-1 and HCC 1806), colorectal (HT-29), and ovarian (SK-OV-3 and OVCAR-3) were obtained from the American Type Culture Collection (ATCC) and cultured at 37° C. in a humidified 95% air/5% CO2 atmosphere in the medium recommended by ATCC.
In vitro cell viability. Cell viability was analyzed as follows: cancer cells including pancreatic (PANC-1 and CFPAC-1), lung (HCC827 and H460), stomach (NCI-N87 and KATOIII), urothelial (J82, RT4), prostatic (PC3) and breast (MX-1 and HCC 1806), colorectal (HT-29) and ovarian (SK-OV-3 and OVCAR-3) were grown on 96 well plates to ˜60% confluence, the cells were starved for 24 h in culture medium containing 0.5% FBS. Cells were then treated with GHRH antagonists MIA602 AVR compounds at concentrations of 1, 2.5 or 5 μM, or vehicle (0.1% DMSO) in quintuplicates for 72 hours. The medium was replaced every 48 hours. Cell viability was measured using CellTiter 96 aqueous one solution kit (Promega). Inhibitory effects of tested AVR compounds in comparison to that of MIA602 are presented as inhibitory potency.
Inhibitory effects of selected AVR compounds in comparison to that of MIA602 are presented as inhibitory potency (e.g., percentage of inhibition). […] The cell lines tested including lung cancer HCC827 (FIG. 2A), pancreatic cancer CFPAC-1 (FIG. 2B), stomach cancer N87 (FIG. 2C), colon cancer HT-29 (FIG. 2D), breast cancers MX-1 and HCC1806 (FIGS. 2 E, F). […]

[2] = test system: gene expression in mouse lung tissue; test: RNAseq and pathway analysis of lung tissue of bleomycin-treated mice; assay type: in vivo, C57Bl/6J mice; details: bleomycin 28 days, MIA-602 vs vehicle
Description: RNA isolation. RNA was extracted from fixed lung tissue in paraffin blocks using a Quick-RNA™ FFPE Kit (R1008, Zymo Research, Irvine, Calif.) following the manufacturer's protocol (Patel P, Selvarajah S, Guerard K, Bartlett J, Lapointe J, Berman D, Okello J, Park P (2017). PLoS ONE 12:e0179732). Samples were deparaffinized, digested with proteinase K and decrosslinked at 65° C. for 15 minutes. RNA lysis buffer was added and mixed with ethanol. The mixtures were transferred to spin columns to isolate total RNA.
RNAseq and Pathway analyses. At least 10 ng of total RNA was used as input for the KAPA RNA HyperPrep Kit with RiboErase (HMR) to create ribosomal RNA-depleted sequencing libraries, including sample indexing, to allow for multiplexing. Cluster generation and sequencing was done on the Illumina cBOT and HiSeq 3000 using reagents provided by Illumina, finally generating >32 million single-end 100 base reads per sample.
De-multiplexed FASTQ files were created with Illumina supplied scripts in BCL2FASTQ software (v2.17). […]
Gene counts were normalized using trimmed mean of M-values (TMM) method. Differential expression between groups was calculated with the exact test implemented in edgeR (Robinson M, McCarthy D, Smyth G (2010). Bioinformatics 26:139-140). […]

CCCC[C@H](NC(=O)[C@@H](NC(=O)[C@H](CC(=O)O)NC(=O)[C@H](CCC(N)=O)NC(=O)[C@H](CC(C)C)NC(=O)[C@H](CC(C)C)NC(=O)[C@H](CCCN)NC(=O)[C@H](Cc1c[nH]cn1)NC(=O)[C@H](C)NC(=O)[C@H](CO)NC(=O)[C@H](CC(C)C)NC(=O)[C@H](CCC(N)=O)NC(=O)[C@H](CC)NC(=O)[C@H](CC(C)C)NC(=O)[C@@H](NC(=O)[C@H](CCCN)NC(=O)[C@H](Cc1c[nH]cn1)NC(=O)[C@H](Cc1ccc(OC)cc1)NC(=O)[C@H](CCCCNC(=N)N)NC(=O)[C@H](C)NC(=O)[C@@H](NC(=O)[C@H](Cc1c(F)c(F)c(F)c(F)c1F)NC(=O)[C@@H](NC(=O)[C@H](C)NC(=O)[C@H](CC(=O)O)NC(=O)[C@@H](CCCNC(=N)N)NC(=O)[C@H](Cc1ccc(O)cc1)NC(=O)CCCCCCCCCCCNC(=O)Cc1ccccc1)[C@@H](C)CC)[C@@H](C)O)C(C)C)[C@@H](C)CC)C(=O)N[C@H](CCCNC(=N)N)C(=O)N[C@@H](CCCCNC(=N)N)C(N)=O [MIA-602, PhAC-Ada, Tyr D-Arg, Asp, Ala, Ile, 5FPhe, Thr, Ala, Har, Tyr(Me), His, Orn, Val, Leu, Abu, Gin, Leu, Ser, Ala, His, Om, Leu, Leu, Gin, Asp, Ile; Nle, D-Arg, Har NH2, reference compound] ({PhAc-12Ado}-Y[dR]DAI[Phe(F5)]TA[hArg]Y(Me)H[Orn]VL[Abu]QLSAH[Orn]LLQDI[Nle][dR][hArg]-NH2)
relative inhibitory potency in comparison to MIA-602, Prostatic PC3 [1]: 1
lung gene expression, RNA-seq pathway analysis (in words) [2]: suppression of the adaptive immune response, T cell differentiation and activation and cytokine production; also recorded: downregulation of T cell receptor complex genes (CD3E, CD3G, CD4, and CD8A)

From patent US20210395327A1, “Growth Hormone-Releasing Hormone Antagonists and Uses Thereof” (United States Government As Represented By The Department …, priority 2019, published 2021)
